# Data: US20260215432A1, “ANTIMICROBIAL CONJUGATED OLIGOELECTROLYTES AND METHODS THEREOF” (National University of Singapore, priority 2023, published 2026)
# Key:
# SA = experiment: MIC in physiological-mimicking environments (MHB); assay type: cell-based, S. aureus
# Excerpt: (§1) The complexities of the physiological environment often influence drug activity, particularly when cations in solution are implicated in their oligomerization-dependent mechanisms of action, such as for daptomycin. Binding of free drug to plasma proteins effectively reduces the available free concentration of the drug capable of killing bacteria, resulting in lower observable activity. We tested MIC values of DM4P and DM6P in the presence of human serum albumin (40 g L^−1) and high salt concentrations (Table 4). Under these conditions, the antimicrobial activity was minimally affected by these environmental factors, with MICs remaining within a 2-fold level.
# PA = experiment: MIC in physiological-mimicking environments (MHB); assay type: cell-based, P. aeruginosa
# Excerpt: as §1
# [1] = system: Pseudomonas aeruginosa (PAO1, ATCC 47085); experiment: Time-kill kinetics; assay type: cell-based; details: P. aeruginosa, treatment at or above the MBC
# Method: (§2) Separately, MRSA and P. aeruginosa cultures were challenged with DM6P at varying concentrations and aliquots were taken at specific intervals to quantify the bacteria remaining.
# (§3) The time-kill kinetics was determined against Pseudomonas aeruginosa (PAO1, ATCC 47085) and methicillin-resistant Staphylococcus aureus (ATCC BAA-1717). Bacteria tested were subcultured in Cation-Adjusted Mueller Hinton II Broth (CAMHB, BD Biosciences) from overnight cultures to mid-log phase at 37° C. with shaking at 200 rpm and diluted to an OD600 value of 0.2 and aliquoted into 2 mL fractions in culture tubes. The resulting bacterial suspension was then challenged with DM6P at varying concentrations and incubated at 37° C. with shaking at 200 rpm. At regular intervals, 100 μL aliquots of each sample were diluted with 10-fold dilution in PBS and plated on TSB agar plates with 100 μL inoculation. The colonies were incubated at 37° C. overnight and counted to determine the cfu/mL of each sample. Experiments were performed in triplicate.
# [2] = system: methicillin-resistant Staphylococcus aureus (ATCC BAA-1717); experiment: Time-kill kinetics; assay type: cell-based; details: MRSA, within the first two hours, concentrations above the MBC value of 4 μg mL^−1
# Method: as §2, §3
# MRSA = experiment: Propidium iodide influx assay; assay type: cell-based, S. aureus; details: 0.5 to 2 μg mL^−1 (half to twice the MIC)
# Excerpt: Another hallmark of cytoplasmic membrane damage is an enhanced permeability towards small molecules. Propidium iodide (PI) is a membrane-impermeant organic dye that can be used to study potential mechanisms of action of antibiotics due to its enhanced fluorescence intensity upon binding to intracellular DNA. Treatment with molecules that cause membrane perturbations enable rapid influx of the dye, resulting in an increase in fluorescence emission that can be monitored over time. […] This difference hints at two plausible mechanisms of action that are concentration dependent. Similar observations have been made for tobramycin, where a protein inhibition mode of action at lower concentrations (<4 μg mL^−1) is supplanted by disruption of the outer membrane at higher concentrations (8 μg mL^−1).
# The assay was performed according to a modified reported protocol.^4 Briefly, the corresponding bacteria was collected from mid-log cultures by centrifugation (7000 rpm, 10 minutes) and washed thrice with PBS. The pellet was then resuspended in the same buffer and diluted to an optical density of 2 by extrapolation. […] Fluorescence intensity was measured over time in a plate reader with an excitation wavelength of 525 nm and emission wavelength of 620 nm. Fluorescence signals were measured every 30 seconds and carried out in triplicate.
# PAO1 [3] = experiment: Flow cytometry of PI uptake; assay type: cell-based, P. aeruginosa; details: PAO1, 16 μg mL^−1 (4× MIC), PI staining
# Method: Flow cytometry measurements were carried out to quantify PI uptake at the cellular level.
# Bacteria cells were collected from mid-log cultures by centrifugation (7000 rpm, 10 minutes). and washed with PBS twice. Cells were treated with the COE at 4×MIC and incubated for 30 minutes. PI (30 μM, final concentration) was then added and the cells were further incubated for 10 minutes. The suspension was then diluted in PBS to an appropriate cell density and analysed with flow cytometry using an Amnis ImageStreamX Mk II Imaging Flow Cytometer. The collection gate was set using the area vs aspect ratio of the brightfield channel to select for intact cell events only. To select for PI-stained cells, excitation was carried out using a 638 nm laser and the emission was collected in the range of 642-745 nm. Data was processed using IDEAS v6.3.
# PAO1 [4] = experiment: Live-dead staining (SYTO-9/PI) fluorescence microscopy; assay type: cell-based, P. aeruginosa; details: PAO1, 16 μg mL^−1 for 30 minutes
# Method: Membrane damage induced by COE treatment was also confirmed by fluorescence microscopy. A combination of SYTO-9 and PI is commonly employed as a live-dead stain to distinguish cells with permeabilized membranes. […] Combined with PI, the contrast between the colours is employed as a visual indicator of membrane damage. PAO1 cells exposed to 16 μg mL^−1 of DM6P for 30 minutes were subsequently stained with both dyes and imaged directly.
# Cell membrane integrity was determined using LIVE/DEAD™ BacLight™ bacterial viability kit L7007 (ThermoFisher, USA) according to the manufacturer's protocol. Bacteria cells were collected from mid-log cultures by centrifugation (7000 rpm, 10 minutes). The media was removed, and the bacteria was washed with PBS twice and diluted to a concentration of about 1×10^7 CFU per mL. […] A mixture of the dyes SYTO-9 and PI dissolved in DMSO were added to the suspension at final concentrations of 5 μM and 30 μM respectively. The bacteria were then incubated in the dark for 15 min. Samples were prepared by aliquoting 5 μl onto a clean glass slide, trapped with an 18 mm coverslip and imaged on an epifluorescence microscope (Leica Thunder Imager).
# [5] = mice
# Method: At the end-point, mice were sacrificed and the individual organs and blood samples were collected. Tissues were fixed in 10% neutral-buffered formalin (NBF) for 48 hours and subjected to H&E staining and examination. Clinical blood biomarkers were analysed with a Pointcare® cM4 Blood Chemistry Analyzer (Tianjin MNCHIP Technologies Co., Ltd) according to the manufacturer's protocol.
# [6] = 0.25 mg kg^−1, blood after 14 days, mean ± s.d. (n = 3)
structure (smiles),measurement,setting,value
COc1cc(/C=C/c2ccc(OCCCCCC[P+](c3ccccc3)(c3ccccc3)c3ccccc3)c(OC)c2)ccc1OCCCCCC[P+](c1ccccc1)(c1ccccc1)c1ccccc1.[I-].[I-] [DM6P],MIC CaCl2,SA; CaCl2 1 mM,1 µg/mL
same,MIC MgCl2,SA; MgCl2 1.25mM,1 µg/mL
same,MIC NaCl,SA; NaCl 300 mM,1 µg/mL
same,MIC HSA,SA; human serum albumin 40 g L^−1,1 µg/mL
same,MIC —,SA; no additive,1 µg/mL
same,MIC CaCl2,PA; CaCl2 1 mM,4 µg/mL
same,MIC MgCl2,PA; MgCl2 1.25mM,4 µg/mL
same,MIC NaCl,PA; NaCl 300 mM,8 µg/mL
same,MIC HSA,PA; human serum albumin 40 g L^−1,8 µg/mL
same,MIC —,PA; no additive,4 µg/mL
same,killing at or above the MBC value,[1],eradication of the cells
same,bacteria remaining (nearly complete killing),[2],< 100 cfu mL^−1
same,PI influx,MRSA,PI influx was observed at 2×MIC
same,PI uptake at the cellular level,PAO1 [3],near quantitative cell staining with PI
same,PI staining in live-dead stain,PAO1 [4],clear staining by PI
same,ALB (albumin),[5]; [6],30 ± 3.3 g/L
same,ALT (alanine transaminase),[5]; [6],38.7 ± 4.1 U/L
same,AST (aspartate aminotransferase),[5]; [6],205 ± 50.7 U/L
same,BUN (blood urea nitrogen),[5]; [6],6.7 ± 0.3 mM
same,CRE,[5]; [6],63.7 ± 10.1 µM
same,GGT (gamma-glutamyl transferase),[5]; [6],0.6 ± 0.1 U/L
same,GLO (globulin),[5]; [6],18.6 ± 1.5 g/L
same,TBIL (total bilirubin),[5]; [6],2.9 ± 0.5 µM
same,TP (total protein),[5]; [6],48.6 ± 1.9 g/L
same,blood biomarker levels compared to saline-treated controls,"[5]; 0.25 mg/kg, after 14 days",no significant difference
same,H&E staining of the major organs,"[5]; DM6P treated, 14 days post-treatment",did not reveal any abnormal signs
